Values quoted from earlier work as cited in patent US8298564B2, “Two part antimicrobial boot” (Medtronic, Inc., priority 2006, dated 2012).

Key:
[1] = not given; remark: listed apart in the source

SMILES	degradation under steam sterilization	degradation with ethylene oxide sterilization ([1]; ethylene oxide sterilization)	degradation or loss in antimicrobial activity of rifampin-containing devices treated with ethylene oxide ([1]; devices containing rifampin treated with ethylene oxide, reported by numerous studies)	degradation on ethylene oxide sterilization, as discovered in U.S. patent application Ser. No. 11/535,762 ([1]; ethylene oxide sterilization)
CN(C)c1ccc(O)c2c1C[C@H]1C[C@H]3[C@H](N(C)C)C(O)=C(C(N)=O)C(=O)[C@@]3(O)C(O)=C1C2=O [minocycline]	degrades to unacceptable levels	does not appear to substantially degrade		
CO[C@H]1/C=C/O[C@@]2(C)Oc3c(C)c(O)c4c(O)c(c(/C=N/N5CCN(C)CC5)c(O)c4c3C2=O)NC(=O)/C(C)=C\C=C\[C@H](C)[C@H](O)[C@@H](C)[C@@H](O)[C@@H](C)[C@H](OC(C)=O)[C@@H]1C [rifampin]	fairly stable		no detectable degradation or no loss in antimicrobial activity	substantial degradation
